Activity calls are given as the source filed them. The rule behind the calls is not given here.
Columns and labels:
Format in all cases: functional, organism-based
[1] = tested on: Nippostrongylus brasiliensis; assay: Antimicrobial activity against Nippostrongylus brasiliensis
Staphylococcus aureus = assay: Antimicrobial activity against Staphylococcus aureus
[2] = tested on: Trichophyton mentagrophytes; assay: Antimicrobial activity against Trichophyton mentagrophytes
Candida albicans = assay: Antimicrobial activity against Candida albicans

| SMILES | Activity [1] | Activity (Staphylococcus aureus) | Activity [2] | Activity (Candida albicans) |
| --- | --- | --- | --- | --- |
| [C-]#[N+][C@@H]1[C@H]2[C@H](CC[C@@]1(C)O)C(=C)CC[C@@H]2[C@@]1(C)CC[C@H](Cl)C(C)(C)O1 | inactive |  |  |  |
| CC1(C)O[C@@](C)([C@H]2CC[C@@](C)(N=C=S)[C@H]3CC[C@@](C)(O)[C@H](NC=O)[C@@H]32)CC[C@@H]1Cl | inactive |  |  |  |
| [C-]#[N+][C@@H]1[C@H]2[C@H](CC[C@@]1(C)O)[C@](C)(N=C=S)CC[C@@H]2[C@@]1(C)CC[C@H](Cl)C(C)(C)O1 | Active | Active | Active | Active |
| CC1=CC[C@@H](C(C)C)[C@H]2C[C@@](C)(N=C=S)CC[C@@H]12 (relative stereo) | inactive |  |  |  |
| CC1=C[C@H]2[C@@H](CC1)[C@@](C)(N=S)CC[C@H]2C(C)C | inactive |  |  |  |
| [C-]#[N+][C@@H]1[C@H](C(C)C)CC[C@@H](C)[C@@]12C=C(C)CC2 | inactive | Active | Active | Active |
| CC1=CC2=C(C(C)C)CC[C@](C)(N=C=S)[C@@H]2CC1 | inactive |  |  |  |
